The source of these data is ChEMBL document CHEMBL3425506, “Synthesis, antimycobacterial evaluation and pharmacophore modeling of analogues of the natural product formononetin” (2015).

In the assay the test system is Mycobacterium tuberculosis. Put plainly: Antimycobacterial activity against Mycobacterium tuberculosis H37Rv ATCC 27294 assessed as inhibition of microbial growth at 10 uM after 5 to 8 days by MABA method. The format is functional. The conditions noted are these: read-out: GI. For orientation: The colour change of resazurin is a common sign of viable cells or microbes.
Take `COc1ccc(-c2coc3cc(O)ccc3c2=O)cn1`: the inhibition of growth at 10 µM amounted to 0%.

For the compound `COc1ccc(-c2coc3ccc(OC)cc3c2=O)cc1`, the inhibition of growth at 10 µM was 0%.

`COc1ccc(/C=C/C(=O)c2ccc(O)cc2O)cc1`: the inhibition of growth at 10 µM came to 58%.

In the case of `COc1ccc(-c2coc3cc(F)ccc3c2=O)cn1`, the inhibition of growth at 10 µM was 2%.

As for `O=c1c(-c2ccc(Cl)cc2)coc2cc(O)ccc12`, the inhibition of growth at 10 µM is 54%.

Turning to `COc1ccc(-c2coc3cc(O)ccc3c2=O)cc1` [FORMONONETIN], the inhibition of growth at 10 µM turned out to be 88%.

In the case of `COc1ccc(-c2coc3ccc(Cl)cc3c2=O)cc1`, the inhibition of growth at 10 µM is 0%.

In the case of `COc1ccc(-c2coc3cc(F)ccc3c2=O)cc1`, the inhibition of growth at 10 µM worked out at 0%.

With `COc1ccc(-c2cnoc2-c2ccc(O)cc2O)cc1`, the inhibition of growth at 10 µM was found to be 15%.

Turning to `O=c1c(-c2ccccc2)coc2ccccc12` [ISOFLAVONE], the inhibition of growth at 10 µM turned out to be 0%.

For the compound `COc1ccc(-c2coc3cc(O)ccc3c2=O)cc1OC` [CLADRIN], the inhibition of growth at 10 µM stood at 14%.

With `COc1ccc(-c2coc3ccc(F)cc3c2=O)cc1`, the inhibition of growth at 10 µM came to 0%.

On to `COc1ccc(-c2c[nH]nc2-c2ccc(O)cc2O)cc1`, for which the inhibition of growth at 10 µM amounted to 40%.

In the case of `COc1ccc(-c2coc3ccccc3c2=O)cc1`, the inhibition of growth at 10 µM came to 0%.

As to `COc1ccc(-c2coc3cc(O)ccc3c2=S)cc1`, the inhibition of growth at 10 µM was found to be 4%.

Take `COc1ccc(-c2coc3ccc(C)cc3c2=O)cc1`: the inhibition of growth at 10 µM was found to be 7%.

As to `N#Cc1ccc(-c2coc3cc(O)ccc3c2=O)cc1`, the inhibition of growth at 10 µM was found to be 16%.

As to `CC(C)(C)c1ccc(-c2coc3cc(O)ccc3c2=O)cc1`, the inhibition of growth at 10 µM was determined as 95%.

Consider `COc1ccc(-c2coc3cc(O)ccc3c2=O)cc1F`, for which the inhibition of growth at 10 µM was 13%.

With `COc1ccc(-c2coc3ccc(Br)cc3c2=O)cc1`, the inhibition of growth at 10 µM was determined as 5%.

For `COc1ccc(-c2coc3ccc(O)cc3c2=O)cc1`, the inhibition of growth at 10 µM was 28%.
